Measured values reported in patent publication US20200281834A1, “COMPOSITION FOR PROMOTING EXPRESSION OF AQUAPORIN 3, AND USE THEREOF” (SUNTORY HOLDINGS LIMITED, priority 2017, published 2020).
Several values for one entry are separate records, joined by “and”; a condition that tells them apart may be missing. Equal values may be shown once.

Tested on: aquaporin 3
Experiment: Expression level of aquaporin 3 in skin epithelial cells (real-time PCR, corrected for GAPDH)
Format: cell-based, Human
Details: NHEK, 24 hours
[1] = 30 μM, control (culture solution) = 1.0
[2] = 50 μM, control (culture solution) = 1.0

Procedure: As a control, 50% ethanol was prepared.
As a positive control, retinoic acid was prepared.
Human epidermal keratinocytes (NHEK (AD)) were precultured under conditions of 37° C. and 5% CO2 in a serum-free liquid medium for growing human epidermal keratinocyte (HuMedia-KG2 manufactured by Kurabo Industries, Ltd.) in a 21 cm^2 dish, and cultured until the cells became sub-confluent.
Next, each test sample was added to the culture solution. Each test sample was added to the culture solution in such a manner that the concentration of the wine in the culture solution was equivalent to 1/400 of the concentration of each original composition (wine).
After each test sample was added, the cells were cultured under conditions of 37° C. and 5% CO2 for 24 hours.
Instead of each test sample, 0.125 mL of 50% ethanol as a control was added to 5 mL of the culture solution.
Instead of each test sample, retinoic acid as a positive control was added to the culture solution in such a manner that the concentration of the retinoic acid in the culture solution was 2 μM.
After the compositions as the controls were added, the cells were cultured under conditions of 37° C. and 5% CO2 for 24 hours.
After the culture of skin epithelial cells in “(2) Culture of Skin Epithelial Cells”, RNA was extracted from the cultured cells with ISOGEN (manufactured by Nippon Gene Co., Ltd.).
From 1 μg of the resulting RNA, cDNA was synthesized with Superscript VILO Master Mix (manufactured by Invitrogen).
Thereafter, with primers (primers having nucleotide sequences of SEQ ID NOS: 1 and 2) shown in Table 4, real-time PCR was performed to detect expression of aquaporin 3 (Genbank Accession No. NM_004925).
For PCR, KOD SYBR qPCR Mix (manufactured by Toyobo Co., Ltd.) was used, and the reaction conditions were set such that thermal denaturation was carried out at 98° C. for 10 seconds, annealing was carried out at 60° C. for 10 seconds, and elongation reaction was carried out at 68° C. for 30 seconds.
The fluorescence intensity in the process of amplification was monitored with a quantitative PCR apparatus StepOnePlus (manufactured by Applied Biosystems) to determine the number of cycles taken until the fluorescence intensity became constant. From the number of cycles for aquaporin 3, the expression level was calculated through a standard method.
In parallel to detection of the expression level of aquaporin 3 by real-time PCR, the expression level of glyceraldehyde-3-phosphate dehydrogenase (GAPDH) (Genbank Accession No. NM_002046) which is a housekeeping gene was measured with primers (primers having nucleotide sequences of SEQ ID NOS: 3 and 4) shown in Table 4.
The expression level of aquaporin 3 in the cultured cells was corrected for the expression level of GAPDH, and the expression level relative against the expression level of aquaporin 3 in the control was calculated, where the expression level of aquaporin 3 in the control was defined as 1.0.
The expression level of aquaporin 3 in skin epithelial cells was measured in the same manner as in “Method for Evaluating Expression Level of Aquaporin 3” except that instead of each test sample, 0.0125 mL of each fraction was added to 5 mL of a culture solution.
Each compound was dissolved in a human epidermal keratinocyte growing serum-free liquid medium (HuMedia-KG2 manufactured by Kurabo Industries, Ltd.) to prepare a test sample.
The culture solution was used as a control.

Molecule	Relative gene expression level (average) of aquaporin 3 [1]	Relative gene expression level (average) of aquaporin 3 [2]	Relative gene expression level (average) of aquaporin 3 (2 μM, control (50% ethanol) = 1.0)	Relative gene expression level (average) of aquaporin 3 (2 μM, control (culture solution) = 1.0, listed as RA)
Oc1cc(O)c2c(c1)O[C@H](c1ccc(O)c(O)c1)[C@@H](O)[C@@H]2c1c(O)cc(O)c2c1O[C@H](c1ccc(O)c(O)c1)[C@@H](O)C2 [C-C, Procyanidin B3]	1.19	1.27		
Oc1cc(O)c2c(c1)O[C@H](c1ccc(O)c(O)c1)[C@@H](O)[C@@H]2c1c(O)cc(O)c2c1O[C@H](c1ccc(O)c(O)c1)[C@H](O)C2 [C-EC, procyanidin B4]	1.24	1.12		
O=C(O[C@@H]1Cc2c(O)cc(O)c([C@@H]3c4c(O)cc(O)cc4O[C@H](c4ccc(O)c(O)c4)[C@H]3O)c2O[C@@H]1c1ccc(O)c(O)c1)c1cc(O)c(O)c(O)c1 [C-ECG, (+)-catechin-(−)epicatechin-3-O-gallate]	2.19	2.59		
Oc1cc(O)c2c(c1)O[C@H](c1ccc(O)c(O)c1)[C@H](O)C2 [EC, epicatechin]	1.15	1.21		
Oc1cc(O)c2c(c1)O[C@H](c1ccc(O)c(O)c1)[C@H](O)[C@H]2c1c(O)cc(O)c2c1O[C@H](c1ccc(O)c(O)c1)[C@@H](O)C2 [EC-C, Procyanidin B1]	1.14	1.20		
Oc1cc(O)c2c(c1)O[C@H](c1ccc(O)c(O)c1)[C@H](O)[C@H]2c1c(O)cc(O)c2c1O[C@H](c1ccc(O)c(O)c1)[C@H](O)C2 [EC-EC, procyanidin B2]	0.98	0.99		
O=C(O[C@@H]1Cc2c(O)cc(O)cc2O[C@@H]1c1ccc(O)c(O)c1)c1cc(O)c(O)c(O)c1 [ECG, epicatechin gallate]	1.63	1.25		
O=C(O[C@@H]1Cc2c(O)cc(O)cc2O[C@@H]1c1cc(O)c(O)c(O)c1)c1cc(O)c(O)c(O)c1 [EGCG, epigallocatechin gallate]	1.36	1.47		
Oc1cc(O)c2c(c1)O[C@H](c1ccc(O)c(O)c1)[C@H](O)[C@H]2c1c(O)cc(O)c2c1O[C@H](c1ccc(O)c(O)c1)[C@H](O)[C@H]2c1c(O)cc(O)c2c1O[C@H](c1ccc(O)c(O)c1)[C@H](O)C2 [PC1, procyanidin C1]	1.41	1.34		
CC1=C(/C=C/C(C)=C/C=C/C(C)=C/C(=O)O)C(C)(C)CCC1 [Retinoic acid, retinoic acid]			1.61	1.32 and 1.36 and 1.21
(+)-catechin-(+)-catechin-(−)-epicatechin-3-O-gallate [C-C-ECG]	2.01	2.50		
catechin	1.19	1.14		
